Type: physicochemical
Conditions: HPLC on reversed phase columns, method [a]: pH 2.7, 0.1% formic acid in water / acetonitrile, linear gradient 10% to 95% acetonitrile
For `C#Cc1cnc2ccc(C3=NOC(C)(C(=S)NCC4COC(C)(C)O4)C3)cc2c1` (centres unmarked) [compound 513], the “log P” value was 3.44[a]. In the case of `C=C(C)C1(C(=O)NCCCOCC)CC(c2ccc3ncc(Br)cc3c2)=NO1` (centres unmarked) [compound 518], the “log P” value is reported as 3.37[a]. In the case of `C=C(C)C1(C(=O)NCc2cn(CCC)nc2C)CC(c2ccc3ncc(Br)cc3c2)=NO1` (centres unmarked) [compound 519], the “log P” value is reported as 3.17[a]. In the case of `C=C(C)C1(C(=O)NC2CCC2)CC(c2ccc3ncc(Br)cc3c2)=NO1` (centres unmarked) [compound 521], the “log P” value is reported as 3.61[a]. With `C=C(C)C1(C(=O)NCc2cn(CC)nc2C)CC(c2ccc3ncc(Br)cc3c2)=NO1` (centres unmarked) [compound 526] the “log P” value was 2.91[a]. In the case of `CC(C)NC(=O)C1(C(C)O)CC(c2ccc3ncc(Br)cc3c2)=NO1` (centres unmarked) [compound 552], the “log P” value is reported as 2.23[a]. For `CC(O)C1(C(=O)NC2CCC2)CC(c2ccc3ncc(Br)cc3c2)=NO1` (centres unmarked) [compound 563], the “log P” value was 2.41[a]. With `C#Cc1cnc2c(C)cc(C3=NOC(C)(C(=O)NC(C)C)C3)cc2c1` (centres unmarked) [compound 571] the “log P” value was 3.06[a]. With `Cc1cc(C2=NOC(C)(C(=O)NC(C)C)C2)cc2cc(Br)cnc12` (centres unmarked) [compound 573] the “log P” value was 3.51[a]. For `COC1(C(=O)NCc2cnc(C)cn2)CC(c2cc(Cl)c3ncc(Br)cc3c2)=NO1` (centres unmarked) [compound 575], the “log P” value was 2.62[a]. With `COC1(C(=O)NC2CCC2)CC(c2cc(Cl)c3ncc(Br)cc3c2)=NO1` (centres unmarked) [compound 576] the “log P” value was 3.33[a]. With `CCOCCCNC(=O)C1(OC)CC(c2cc(Cl)c3ncc(Br)cc3c2)=NO1` (centres unmarked) [compound 577] the “log P” value was 3.19[a]. With `C#Cc1cnc2c(C)cc(C3=NOC(C)(C(=O)NC4CCC4)C3)cc2c1` (centres unmarked) [compound 578] the “log P” value was 3.25[a]. For `Cc1cc(C2=NOC(C)(C(=O)NC3CCC3)C2)cc2cc(Br)cnc12` (centres unmarked) [compound 579], the “log P” value was 3.71[a]. With `CCn1cc(CNC(=O)C2(C)CC(c3cc(C)c4ncc(Br)cc4c3)=NO2)c(C)n1` (centres unmarked) [compound 580] the “log P” value was 2.96[a]. For `C#Cc1cnc2c(C)cc(C3=NOC(C)(C(=O)NCc4cn(CC)nc4C)C3)cc2c1` (centres unmarked) [compound 581], the “log P” value was 2.62[a]. For `CCOCCCNC(=O)C1(C(C)=O)CC(c2ccc3ncc(Br)cc3c2)=NO1` (centres unmarked) [compound 582], the “log P” value was 2.90[a]. With `CC(=O)C1(C(=O)NC2CCC2)CC(c2ccc3ncc(Br)cc3c2)=NO1` (centres unmarked) [compound 583] the “log P” value was 3.06[a]. In the case of `CC(=O)C1(C(=O)NCc2cnc(C)cn2)CC(c2ccc3ncc(Br)cc3c2)=NO1` (centres unmarked) [compound 584], the “log P” value is reported as 2.37[a]. In the case of `CCn1cc(CNC(=O)C2(C(C)=O)CC(c3ccc4ncc(Br)cc4c3)=NO2)c(C)n1` (centres unmarked) [compound 585], the “log P” value is reported as 2.53[a]. In the case of `CCCn1cc(CNC(=O)C2(C(C)=O)CC(c3ccc4ncc(Br)cc4c3)=NO2)c(C)n1` (centres unmarked) [compound 586], the “log P” value is reported as 2.80[a]. For `C#Cc1cnc2c(Cl)cc(C3=NOC(OC)(C(=O)NCc4cn(CC)nc4C)C3)cc2c1` (centres unmarked) [compound 587], the “log P” value was 2.53[a]. For `C#Cc1cnc2c(Cl)cc(C3=NOC(OC)(C(=O)NCc4cn(CCC)nc4C)C3)cc2c1` (centres unmarked) [compound 588], the “log P” value was 2.80[a]. With `C#Cc1cnc2c(Cl)cc(C3=NOC(OC)(C(=O)NCC4COC(C)(C)O4)C3)cc2c1` (centres unmarked) [compound 589] the “log P” value was 2.82[a]. In the case of `C#Cc1cnc2c(Cl)cc(C3=NOC(OC)(C(=O)NC(C)C)C3)cc2c1` (centres unmarked) [compound 590], the “log P” value is reported as 2.84[a]. In the case of `C#Cc1cnc2c(Cl)cc(C3=NOC(OC)(C(=O)NCc4cnc(C)cn4)C3)cc2c1` (centres unmarked) [compound 591], the “log P” value is reported as 2.37[a]. With `C#Cc1cnc2c(Cl)cc(C3=NOC(OC)(C(=O)NC4CCC4)C3)cc2c1` (centres unmarked) [compound 592] the “log P” value was 3.02[a]. For `C#Cc1cnc2c(Cl)cc(C3=NOC(OC)(C(=O)NCCCOCC)C3)cc2c1` (centres unmarked) [compound 594], the “log P” value was 2.88[a]. In the case of `C#Cc1cnc2ccc(C3=NOC(C)(C(=O)NC4CCN(C)CC4)C3)cc2c1` (centres unmarked) [compound 598], the “log P” value is reported as 1.17[a]. For `CCn1cc(CNC(=O)C2(OC)CC(c3cc(C)c4ncc(Br)cc4c3)=NO2)c(C)n1` (centres unmarked) [compound 600], the “log P” value was 2.96[a]. In the case of `COC1(C(=O)NCC2COC(C)(C)O2)CC(c2cc(C)c3ncc(Br)cc3c2)=NO1` (centres unmarked) [compound 601], the “log P” value is reported as 3.33[a]. With `COC1(C(=O)NC2CCC2)CC(c2cc(C)c3ncc(Br)cc3c2)=NO1` (centres unmarked) [compound 603] the “log P” value was 3.58[a]. For `C#Cc1cnc2c(C)cc(C3=NOC(OC)(C(=O)NC(C)C)C3)cc2c1` (centres unmarked) [compound 604], the “log P” value was 2.94[a]. With `C#Cc1cnc2c(C)cc(C3=NOC(OC)(C(=O)NCC4COC(C)(C)O4)C3)cc2c1` (centres unmarked) [compound 605] the “log P” value was 2.92[a]. For `C#Cc1cnc2c(C)cc(C3=NOC(OC)(C(=O)NCCCOCC)C3)cc2c1` (centres unmarked) [compound 607], the “log P” value was 3.00[a]. With `COC1(C(=O)NC(C)C)CC(c2cc(C)c3ncc(Br)cc3c2)=NO1` (centres unmarked) [compound 608] the “log P” value was 3.37[a]. With `C#Cc1cnc2c(C)cc(C3=NOC(OC)(C(=O)NCc4cn(CC)nc4C)C3)cc2c1` (centres unmarked) [compound 609] the “log P” value was 2.62[a]. For `C#Cc1cnc2c(C)cc(C3=NOC(OC)(C(=O)NCc4cn(CCC)nc4C)C3)cc2c1` (centres unmarked) [compound 610], the “log P” value was 2.90[a]. With `C#Cc1cnc2c(C)cc(C3=NOC(OC)(C(=O)NCc4cnc(C)cn4)C3)cc2c1` (centres unmarked) [compound 611] the “log P” value was 2.46[a]. For `C#Cc1cnc2c(C)cc(C3=NOC(OC)(C(=O)NC4CCC4)C3)cc2c1` (centres unmarked) [compound 612], the “log P” value was 3.15[a]. For `C#Cc1cnc2ccc(C3=NOC(C(=O)NC(C)C)(C(F)F)C3)cc2c1` (centres unmarked) [compound 616], the “log P” value was 2.73[a]. With `CC(C)NC(=O)C1(C(F)F)CC(c2ccc3ncc(I)cc3c2)=NO1` (centres unmarked) [compound 620] the “log P” value was 3.17[a]. With `CC1(C)OCC(CNC(=O)C2(C(F)F)CC(c3ccc4ncc(Br)cc4c3)=NO2)O1` (centres unmarked) [compound 622] the “log P” value was 2.96[a]. In the case of `C#CC(C)(C)NC(=O)C1(C)CC(c2ccc3ncc(Br)cc3c2)=NO1` (centres unmarked) [compound 624], the “log P” value is reported as 3.08[a]. For `C#CC1(C(=O)NC2CCC2)CC(c2ccc3ncc(Br)cc3c2)=NO1` (centres unmarked) [compound 625], the “log P” value was 3.11[a]. For `C#CC1(C(=O)NCc2cn(CC)nc2C)CC(c2ccc3ncc(Br)cc3c2)=NO1` (centres unmarked) [compound 626], the “log P” value was 2.57[a]. In the case of `C#CC1(C(=O)NCCCOCC)CC(c2ccc3ncc(Br)cc3c2)=NO1` (centres unmarked) [compound 627], the “log P” value is reported as 2.94[a]. In the case of `C#CC1(C(=O)NCc2cnc(C)cn2)CC(c2ccc3ncc(Br)cc3c2)=NO1` (centres unmarked) [compound 628], the “log P” value is reported as 2.41[a]. In the case of `C#Cc1cnc2ccc(C3=NOC(C)(C(=O)NCc4cn(C5CCCC5)nc4C)C3)cc2c1` (centres unmarked) [compound 629], the “log P” value is reported as 2.71[a]. For `Cc1nn(C2CCCC2)cc1CNC(=O)C1(C)CC(c2ccc3ncc(Br)cc3c2)=NO1` (centres unmarked) [compound 630], the “log P” value was 3.04[a]. In the case of `C#Cc1cnc2ccc(C3=NOC(C)(C(=O)NCc4ccc(OC)cn4)C3)cc2c1` (centres unmarked) [compound 631], the “log P” value is reported as 1.96[a]. With `C#Cc1cnc2ccc(C3=NOC(C)(C(=O)NCc4cn(C5CCC5)nc4C)C3)cc2c1` (centres unmarked) [compound 632] the “log P” value was 2.63[a]. For `Cc1nn(C2CCC2)cc1CNC(=O)C1(C)CC(c2ccc3ncc(Br)cc3c2)=NO1` (centres unmarked) [compound 633], the “log P” value was 2.92[a]. For `C#Cc1cnc2ccc(C3=NOC(C)(C(=O)NCc4cn(CC)nc4Br)C3)cc2c1` (centres unmarked) [compound 634], the “log P” value was 2.56[a]. For `C#Cc1cnc2ccc(C3=NOC(C)(C(=O)NCc4cn(CC)nc4SC)C3)cc2c1` (centres unmarked) [compound 635], the “log P” value was 2.51[a]. For `CCn1cc(CNC(=O)C2(C)CC(c3ccc4ncc(Br)cc4c3)=NO2)c(Br)n1` (centres unmarked) [compound 636], the “log P” value was 2.86[a]. In the case of `C#Cc1cnc2ccc(C3=NOC(C)(C(=O)NCc4cn(CC)nc4OC)C3)cc2c1` (centres unmarked) [compound 637], the “log P” value is reported as 2.35[a]. With `CCn1cc(CNC(=O)C2(C)CC(c3ccc4ncc(Br)cc4c3)=NO2)c(SC)n1` (centres unmarked) [compound 638] the “log P” value was 2.78[a]. For `CCn1cc(CNC(=O)C2(C)CC(c3ccc4ncc(Br)cc4c3)=NO2)c(OC)n1` (centres unmarked) [compound 639], the “log P” value was 2.63[a]. In the case of `C#Cc1cnc2ccc(C3=NOC(C)(C(=O)NCCF)C3)cc2c1` (centres unmarked) [compound 640], the “log P” value is reported as 2.05[a]. For `CC1(C(=O)NCCF)CC(c2ccc3ncc(Br)cc3c2)=NO1` (centres unmarked) [compound 641], the “log P” value was 2.30[a]. With `CC1(C(=O)NCc2ccncn2)CC(c2ccc3ncc(Br)cc3c2)=NO1` (centres unmarked) [compound 642] the “log P” value was 2.01[a]. For `C#Cc1cnc2ccc(C3=NOC(C)(C(=O)NCc4nc(C)cc(C)n4)C3)cc2c1` (centres unmarked) [compound 643], the “log P” value was 2.23[a]. For `COc1cccnc1CNC(=O)C1(C)CC(c2ccc3ncc(Br)cc3c2)=NO1` (centres unmarked) [compound 644], the “log P” value was 2.26[a]. For `C#Cc1cnc2ccc(C3=NOC(C)(C(=O)NCc4ncccc4OC)C3)cc2c1` (centres unmarked) [compound 645], the “log P” value was 2.01[a]. For `CC1(C(=O)NCc2cnn(CC(F)F)c2)CC(c2ccc3ncc(Br)cc3c2)=NO1` (centres unmarked) [compound 646], the “log P” value was 2.42[a]. In the case of `C#Cc1cnc2ccc(C3=NOC(C)(C(=O)NCc4cnn(CC(F)F)c4)C3)cc2c1` (centres unmarked) [compound 647], the “log P” value is reported as 2.17[a]. For `C#Cc1cnc2ccc(C3=NOC(C)(C(=O)NCc4nc(C)cs4)C3)cc2c1` (centres unmarked) [compound 648], the “log P” value was 2.26[a].

Same assay, conditions: method [a]: HPLC/LC-MS on reversed phase at pH 2.7, 0.1% formic acid in water / acetonitrile, gradient 10% to 95% acetonitrile
With `CC1(C(=O)NC2=NCCO2)CC(c2ccc3ncc(Br)cc3c2)=NO1` (centres unmarked) [compound 495] the “log P” value was 1.71[a]. For `CCC1(C(=O)NCC2COC(C)(C)O2)CC(c2ccc3ncc(Br)cc3c2)=NO1` (centres unmarked) [compound 499], the “log P” value was 2.99[a]. For `CC(C)NC(=O)C1(C)CC(c2ccc3nc(C#N)c(I)cc3c2)=NO1` (centres unmarked) [compound 510], the “log P” value was 3.04[a].

— patent publication US9510598B2, “Nitrogen-containing heterocyclic compounds for plant disease control” (BAYER CROPSCIENCE AG, priority 2012, dated 2016)
